Patent US12559474B2, “Triazine derivatives having virus replication inhibitory activity and pharmaceutical composition comprising the same” (priority 2021, dated 2026)
Read-outs that look alike come from different tables or passages of the source.

Key:
[1] = system: SARS-CoV-2; experiment: microbe, parasite or virus in culture; type: cell-based; conditions: Severe acute respiratory syndrome coronavirus 2, VeroE6/TMPRSS2, 72 h, 50% SARS-CoV-2 infected cell death inhibitory concentration, VeroE6/TMPRSS2 cells, 3 days culture
[2] = molecular target: SARS-CoV-2 3CL protease (Severe acute respiratory syndrome coronavirus 2, UniProt P0DTD1); experiment: biochemical; conditions: 50% SARS-CoV-2 3CL protease inhibitory concentration, read-out: IC50

SMILES | EC50 ([1]; class symbols) [nM] | IC50 ([2]; given as class symbols) [nM] | EC50 ([1]; CellTiter-Glo 2.0) [nM] | IC50 ([2]; RapidFire MS) [nM]
Cc1nc2cc(Cl)c(Nc3nc(=O)n(Cc4ncn(C)n4)c(=O)n3Cc3cc(F)c(F)cc3F)cc2s1 [II-0287] | 1000 to 10000 | < 100 | – | –
Cn1cc2cc(Nc3nc(=O)n(-c4cncc(Cl)c4)c(=O)n3Cc3cc(F)c(F)cc3F)ccc2n1 [II-0288] | – | – | 2400 | 99
Cc1cncc(-n2c(=O)nc(Nc3cc(-c4ccc[nH]c4=O)sc3C)n(Cc3cc(F)c(F)c(F)c3)c2=O)c1 [II-0289] | – | – | 16000 | 240
Cc1cncc(-n2c(=O)nc(Nc3ccc4nn(C)cc4c3)n(Cc3cc(C#N)c(F)cc3C)c2=O)c1 [II-0290] | – | – | 210 | 3.5
CNc1nc2cc(F)c(Nc3nc(=O)n(-c4cncc(C)c4)c(=O)n3Cc3cc(F)c(F)c(F)c3)cc2s1 [II-0291] | 1000 to 10000 | < 100 | – | –
CNc1nc2cc(F)c(Nc3nc(=O)n(-c4cncc(C)c4)c(=O)n3Cc3cc(C#N)ccc3Cl)cc2s1 [II-0292] | – | – | 434 | 3.9
O=c1nc(Nc2cc3cn(CCO)nc3cc2Cl)n(Cc2cc(F)c(F)c(Cl)c2)c(=O)n1Cc1ncccn1 [II-0294] | 1000 to 10000 | < 100 | – | –
Cc1cncc(-n2c(=O)nc(Nc3ccc4nc(NCC(F)(F)F)sc4c3)n(Cc3cc(F)c(F)c(C#N)c3)c2=O)c1 [II-0295] | 1000 to 10000 | < 100 | – | –
Cn1cc2cc(Nc3nc(=O)n(Cc4ncccn4)c(=O)n3Cc3cc(F)c(F)c(Cl)c3)c(Cl)cc2n1 [II-0296] | < 1000 | < 100 | – | –
CNc1nc2cc(Cl)c(Nc3nc(=O)n(Cc4ncccn4)c(=O)n3Cc3cc(F)c(F)c(Cl)c3)cc2s1 [II-0297] | 1000 to 10000 | < 100 | – | –
Cc1cncc(-n2c(=O)nc(Nc3ccc4nc(NCC(F)(F)F)sc4c3)n(Cc3ccc(F)c(C#N)c3)c2=O)c1 [II-0298] | 1000 to 10000 | < 100 | – | –
Cc1cncc(-n2c(=O)nc(Nc3ccc4nn(CC(F)(F)F)cc4c3)n(Cc3cc(C#N)ccc3C)c2=O)c1 [II-0299] | – | – | 202 | 3.3
Cn1cnc(Cn2c(=O)nc(Nc3cc4cn(CCO)nc4cc3Cl)n(Cc3cc(Cl)c(F)cc3F)c2=O)n1 [II-0300] | 1000 to 10000 | < 100 | – | –
Cc1cncc(-n2c(=O)nc(Nc3cc4cn(C)nc4cc3Cl)n(Cc3cc(C#N)ccc3F)c2=O)c1 [II-0301] | < 1000 | < 100 | – | –
Cn1cnc(Cn2c(=O)nc(Nc3cc4cn(CC(C)(C)O)nc4cc3Cl)n(Cc3cc(Cl)c(F)cc3F)c2=O)n1 [II-0302] | 1000 to 10000 | < 100 | – | –
Cc1cncc(-n2c(=O)nc(Nc3cc4sc(NC5CC5)nc4cc3Cl)n(Cc3ccc(F)c(C#N)c3)c2=O)c1 [II-0303] | < 1000 | < 100 | – | –
Cc1ccc(C#N)cc1Cn1c(Nc2ccc3nn(CC(F)(F)F)cc3c2)nc(=O)n(-c2cncc(Cl)c2)c1=O [II-0304] | – | – | 213 | 4.5
Cn1cnc(Cn2c(=O)nc(Nc3cc4cn(CC(C)(C)O)nc4cc3Cl)n(Cc3cc(F)c(F)c(Cl)c3)c2=O)n1 [II-0305] | 1000 to 10000 | < 100 | – | –
Cn1cnc(Cn2c(=O)nc(Nc3cc4sc(NC5CC5)nc4cc3Cl)n(Cc3cc(F)c(F)cc3F)c2=O)n1 [II-0306] | – | – | 410 | 5.1
Cn1cnc(Cn2c(=O)nc(Nc3cc4cn(CCO)nc4cc3Cl)n(Cc3cc(F)c(F)c(Cl)c3)c2=O)n1 [II-0307] | 1000 to 10000 | < 100 | – | –
Cn1cc2cc(Nc3nc(=O)n(-c4cncc5ccccc45)c(=O)n3Cc3cc(F)c(F)cc3F)c(Cl)cc2n1 [II-0308] | < 1000 | < 100 | – | –
Cn1cnc(Cn2c(=O)nc(Nc3cc4cn(CC(=O)OC(C)(C)C)nc4cc3Cl)n(Cc3cc(Cl)c(F)cc3F)c2=O)n1 [II-0309] | 1000 to 10000 | < 100 | – | –
Cn1cnc(Cn2c(=O)nc(Nc3cc4cn(CC(=O)OC(C)(C)C)nc4cc3Cl)n(Cc3cc(F)c(F)c(Cl)c3)c2=O)n1 [II-0311] | 1000 to 10000 | < 100 | – | –
Cc1cncc(-n2c(=O)nc(Nc3ccc4nn(CC(F)(F)F)cc4c3)n(Cc3cc(C#N)ccc3F)c2=O)c1 [II-0312] | < 1000 | < 100 | – | –
CNc1nc2ccc(Nc3nc(=O)n(-c4cncc(C)c4)c(=O)n3Cc3ccc(F)c(C#N)c3)cc2s1 [II-0313] | < 1000 | < 100 | – | –

SMILES | EC50 ([1]; class symbols) [nM] | IC50 ([2]; given as class symbols) [nM] | EC50 ([1]; CellTiter-Glo 2.0) [nM] | IC50 ([2]; RapidFire MS) [nM]
CC(=O)Nc1nc2ccc(Nc3nc(=O)n(-c4cncc(C)c4)c(=O)n3Cc3ccc(F)c(C#N)c3)cc2s1 [II-0316] | 1000 to 10000 | < 100 | – | –
CNc1nc2cc(Cl)c(Nc3nc(=O)n(-c4cncc(C)c4)c(=O)n3Cc3cc(F)c(F)c(F)c3)cc2s1 [II-0318] | < 1000 | < 100 | – | –
Cc1cncc(-n2c(=O)nc(Nc3ccc4nn(C(F)F)cc4c3)n(Cc3ccc(F)c(C#N)c3)c2=O)c1 [II-0320] | < 1000 | < 100 | – | –
N#Cc1cnc2[nH]c(=O)c(Cn3c(=O)nc(Nc4ccc5c(c4)CCO5)n(Cc4cc(F)c(F)c(F)c4)c3=O)cc2c1 [II-0322] | 1000 to 10000 | < 100 | – | –
CNc1nc2ccc(Nc3nc(=O)n(-c4cncc(C)c4)c(=O)n3Cc3cc(F)c(F)c(F)c3)cc2s1 [II-0323] | < 1000 | < 100 | – | –
Cc1nc2cc(Cl)c(Nc3nc(=O)n(Cc4ncn(C)n4)c(=O)n3Cc3cc(F)c(F)cc3F)cc2o1 [II-0326] | 1000 to 10000 | < 100 | – | –
CCNC(=O)Cn1c(=O)nc(Nc2cc3cn(C)nc3cc2Cl)n(Cc2cc(F)c(F)c(F)c2)c1=O [II-0329] | – | – | 11500 | 140
Cn1cc2cc(Nc3nc(=O)n(CC(=O)NC4CCCCC4)c(=O)n3Cc3cc(F)c(F)c(F)c3)c(Cl)cc2n1 [II-0330] | – | – | 42200 | 3600
Cc1cncc(-n2c(=O)nc(Nc3cc4cn(C)nc4cc3Cl)n(Cc3cc(Cl)ccc3C)c2=O)c1 [II-0332] | – | – | 54 | 2
Cc1cncc(-n2c(=O)nc(Nc3cc4cn(C)nc4cc3Cl)n(Cc3cc(C#N)ccc3C(F)F)c2=O)c1 [II-0333] | < 1000 | < 100 | – | –
Cc1cncc(-n2c(=O)nc(Nc3cc4cn(C)nc4cc3Cl)n(Cc3cc(C#N)ccc3CF)c2=O)c1 [II-0334] | – | – | 620 | 2.8
CCn1cc2cc(Nc3nc(=O)n(-c4cncc(C)c4)c(=O)n3Cc3cc(C#N)c(F)cc3C)ccc2n1 [II-0335] | – | – | 241 | 3.2
CCNc1nc2cc(Cl)c(Nc3nc(=O)n(-c4cncc(C)c4)c(=O)n3Cc3ccc(F)c(C#N)c3)cc2s1 [II-0336] | < 1000 | < 100 | – | –
Cc1cncc(-n2c(=O)nc(Nc3cc4cn(CCO)nc4cc3Cl)n(Cc3cc(F)c(F)cc3F)c2=O)c1 [II-0337] | < 1000 | < 100 | – | –
CCNc1nc2cc(Cl)c(Nc3nc(=O)n(Cc4ncn(C)n4)c(=O)n3Cc3cc(F)c(F)cc3F)cc2s1 [II-0339] | < 1000 | < 100 | – | –
Cc1nc2cc(Cn3c(=O)nc(Nc4ccc5c(c4)CCO5)n(Cc4cc(F)c(F)c(F)c4)c3=O)c(=O)[nH]c2s1 [II-0341] | 1000 to 10000 | < 100 | – | –
COc1ccc(Nc2nc(=O)n(Cc3cc4sccc4[nH]c3=O)c(=O)n2Cc2cc(F)c(F)c(F)c2)cc1 [II-0342] | 1000 to 10000 | < 100 | – | –
COc1ccc(Nc2nc(=O)n(Cc3cc4c([nH]c3=O)CCC4)c(=O)n2Cc2cc(F)c(F)c(F)c2)cc1 [II-0343] | – | – | 4140 | 310
Cc1nc(Cn2cc3cc(Nc4nc(=O)n(Cc5ccc[nH]c5=O)c(=O)n4Cc4cc(F)c(F)c(F)c4)c(Cl)cc3n2)no1 [II-0344] | 1000 to 10000 | < 100 | – | –
Cc1cncc(-n2c(=O)nc(Nc3cc4cn(CC5CC5)nc4cc3Cl)n(Cc3ccc(F)c(C#N)c3)c2=O)c1 [II-0345] | < 1000 | < 100 | – | –
CNc1nc2cc(Cl)c(Nc3nc(=O)n(-c4cncc(C)c4)c(=O)n3Cc3cc(C#N)c(F)cc3C)cc2o1 [II-0346] | < 1000 | < 100 | – | –
Cc1ccc(C#N)cc1Cn1c(Nc2ccc3nn(C)cc3c2)nc(=O)n(-c2cncc(Cl)c2)c1=O [II-0347] | – | – | 190 | 7
Cc1cc(Cn2cc3cc(Nc4nc(=O)n(Cc5ccc[nH]c5=O)c(=O)n4Cc4cc(F)c(F)c(F)c4)c(Cl)cc3n2)no1 [II-0348] | 1000 to 10000 | < 100 | – | –
O=c1nc(Nc2cc3c(cc2Cl)nc2n3CCN2)n(Cc2cc(Cl)c(F)cc2F)c(=O)n1-c1cncc(Cl)c1 [II-0349] | 1000 to 10000 | < 100 | – | –
Cc1cncc(-n2c(=O)nc(Nc3cc4c(cc3Cl)nc(C)n4C)n(Cc3ccc(F)c(C#N)c3)c2=O)c1 [II-0350] | 1000 to 10000 | < 100 | – | –
